The values below come from article PMC6863074 (Journal of medicinal chemistry, 2015).

Values after ≈ are worked out from the molar mass of the structure shown. “Also recorded” adds a separate entry of the source. Read-outs that look alike come from different tables or passages of the source. Marks after values point to notes of the source that are not given here.

One data set has as its system HepG2 cells. Put plainly: XTT cytotoxicity assay with HepG2 cells. In general terms: Tetrazolium dyes change colour on reduction, which living cells bring about.
Another data set can be described thus: Full PK study in mice. The note with it: mouse.
Data set [1] relates to S. aureus ATCC 29213. Put plainly: Minimal-bactericidal concentration. The note with it: S. aureus ATCC 29213 (MSSA); MBC = >1000-fold reduction in colonies.
The subject of data set [2] is S. aureus ATCC 29213. The note with it: S. aureus ATCC 29213, MSSA quality-control strain; cited from earlier work.
For data set [3] the following is noted: cited from earlier work.
Data set [4] deals with S. aureus ATCC 29213. Put plainly: MIC determination, S. aureus ATCC 29213. As to conditions: S. aureus ATCC 29213 MIC screening; active = MIC ≤ 8 μg/mL.
For a further data set, the system named is S. epidermis ATCC 35547. Put plainly: MIC determination, S. epidermis ATCC 35547. In kind it is cell-based.
Another data set concerns S. aureus ATCC 27660. As to conditions: cited from earlier work.

As usually defined, the MIC is the least concentration at which growth counts as inhibited. One may read the IC50 as the midpoint of a concentration-inhibition curve.

On to `FC(F)(F)c1ccc(Oc2ccc(-c3noc(-c4ccc5[nH]ccc5c4)n3)cc2)cc1` [75b, 5-(1H-Indol-5-yl)-3-(4-(4-(trifluoromethyl)phenoxy)phenyl)-1,2,4-oxadiazole], for which the “fold less toxic compared to the lead 1 (XTT HepG2)” value in the data set with HepG2 cells (HepG2 cells, versus compound 1) is 5 fold. Besides, in “Full PK study in mice” (20 mg/kg iv), the “clearance as % of hepatic blood flow” value is on record as “less than 10%” and the t1/2α entry is reported as “t1/2α = 0.54 min”. Moreover, in the data set “Full PK study in mice” (20 mg/kg po), the t1/2dist entry was “t1/2dist = 15.9 h”. Moreover, in the data set “Full PK study in mice” (versus compound 1), the “fold higher volume of distribution than 1” value was found to be 13 fold and the “fold lower clearance than 1” value is on record as 3 fold. For the same molecule, the “MBC relative to MIC” value in the data set with S. aureus ATCC 29213 [1] is reported as “the same as the MIC value”.

On to `CC(=O)NC[C@H]1CN(c2ccc(N3CCOCC3)c(F)c2)C(=O)O1` [linezolid], for which, in the data set with S. aureus ATCC 29213 [2], the MIC was 4 µg/mL (≈ 11.9 µM).

Regarding `CCCCCCCCCC(=O)N[C@@H](Cc1c[nH]c2ccccc12)C(=O)N[C@H](CC(N)=O)C(=O)N[C@@H](CC(=O)O)C(=O)N[C@@H]1C(=O)NCC(=O)N[C@@H](CCCN)C(=O)N[C@@H](CC(=O)O)C(=O)N[C@H](C)C(=O)N[C@@H](CC(=O)O)C(=O)NCC(=O)N[C@H](CO)C(=O)N[C@@H]([C@H](C)CC(=O)O)C(=O)N[C@@H](CC(=O)c2ccccc2N)C(=O)O[C@@H]1C` [daptomycin], the plasma protein binding in data set [3] (plasma) is over 91%.

Regarding `CO[C@H]1/C=C/O[C@@]2(C)Oc3c(C)c(O)c4c(O)c(c(/C=N/N5CCN(C)CC5)c(O)c4c3C2=O)NC(=O)/C(C)=C\C=C\[C@H](C)[C@H](O)[C@@H](C)[C@@H](O)[C@@H](C)[C@H](OC(C)=O)[C@@H]1C` [rifampicin], the plasma protein binding in data set [3] (antibiotics on the market) was over 91%.

For teicoplanin, the plasma protein binding in data set [3] (plasma) was over 91%.

`Oc1ccc(-c2nc(-c3ccc(Oc4ccc(C(F)(F)F)cc4)cc3)no2)cc1O` [69b]: the “antibacterial activity (in words)” value with S. aureus ATCC 29213 [4] is reported as “retained activity”.

Turning to `Fc1ccc(Oc2ccc(-c3noc(-c4cc[nH]c4)n3)cc2)cc1` [127c], in the data set on S. aureus ATCC 29213 [4], the “antibacterial activity (in words)” value is recorded as “generally abolish antibacterial activity”.

Regarding `Nc1c(F)cc(-c2nc(-c3ccc(Oc4ccccc4)cc3)no2)cc1F` [73a], in the data set on S. aureus ATCC 29213 [4], the “antibacterial activity (in words)” value is recorded as “without significant loss of activity”.

Consider `CC(C)Nc1c[nH]nc1-c1nc(-c2ccc(Oc3ccc(C(F)(F)F)cc3)cc2)no1` [65b, N-Isopropyl-3-(3-(4-(4-(trifluoromethyl)phenoxy)phenyl)-1,2,4-oxadiazol-5-yl)-1H-pyrazol-4-amine], for which the concentration for half-maximal inhibition (IC50) in the data set on HepG2 cells (Homo sapiens, HepG2, read-out: XTT HepG2 IC50) is 3.9 ± 0.8 µg/mL (≈ 9.08 µM). In addition, in the data set on S. aureus ATCC 29213 [4], the “antibacterial activity (in words)” value is “active”. In the data set on S. epidermis ATCC 35547, this molecule yielded a minimum inhibitory concentration (MIC) of over 128 µg/mL.

`O=[N+]([O-])c1ccc(-c2nc(-c3ccc(Oc4ccccc4)cc3)no2)cc1` [82a]: the “antibacterial activity (in words)” value in the data set on S. aureus ATCC 29213 [4] is recorded as “loss of activity”.

In the case of `Oc1ccc(-c2nc(-c3ccc(Oc4ccc(C(F)(F)F)cc4)cc3)no2)cc1` [compound 1], the ED50 entry is “ED50 = 40 mg/kg^c” in the data set on S. aureus ATCC 27660 (iv, 2 doses given at 30 min and 7.5 h after infection); 44^a mg/kg in the data set with S. aureus ATCC 27660 (po, single dose given at 1 h after infection).

For the molecule `Cc1onc(-c2ccccc2)c1C(=O)N[C@@H]1C(=O)N2[C@@H]1SC(C)(C)[C@@H]2C(=O)O` [oxacillin], in data set [3] (plasma), the plasma protein binding was over 91%.

Consider `CCn1ccc(-c2nc(-c3ccc(Oc4ccc(F)cc4)cc3)no2)n1` [118c], for which the “antibacterial activity (in words)” value in the data set on S. aureus ATCC 29213 [4] is “No activity”.

As to `NS(=O)(=O)c1ccc(-c2nc(-c3ccc(Oc4ccc(C(F)(F)F)cc4)cc3)no2)cc1` [87b], in the data set with S. aureus ATCC 29213 [4], the “antibacterial activity (in words)” value is reported as “failed to show activity; also recorded: attenuate or abrogate activity”.

Take `O=P(O)(O)c1ccc(-c2nc(-c3ccc(Oc4ccc(F)cc4)cc3)no2)cc1` [84c]: the “antibacterial activity (in words)” value in the data set with S. aureus ATCC 29213 [4] is given as “loss of activity; also recorded: attenuate or abrogate activity”.

As for `Nc1ccc(-c2nc(-c3ccc(Oc4ccccc4)cc3)no2)cc1` [58a], the “antibacterial activity (in words)” value with S. aureus ATCC 29213 [4] is “low MIC values”.
